Measurements published in patent publication US20060069132A1, “Azolecarboxamide herbicides” (priority 2004, published 2006).

What was measured:
wheat = test: Test B postemergence herbicide test; type: in vivo, Triticum aestivum; set-up: key to Wheat plant response rating: 0 = no effect, 100 = complete control
Procedure, shortened: (§1)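 Postemergence plants were sprayed with formulated test chemicals at 2 to 18 cm height (1- to 4-leaf stage); paddy species were grown to the 2-leaf stage. After 13 to 15 days in a greenhouse, injury was rated visually against untreated controls on a 0–100 scale (0 = no effect, 100 = complete control).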

lambsquarters = test: Test B pre-/postemergence herbicide test; type: in vivo, Chenopodium album
Procedure, shortened: (§2)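 Evaluation is visual, comparing treated with control plants on a scale where 0 means no effect and 100 means full control. Treatments were preemergence, or postemergence on seedlings 2–18 cm tall, and held 13–15 days in the greenhouse.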

[1] = test system: small flower umbrella sedge; test: Test B flooded paddy test; type: in vivo, Cyperus difformis; details: 1000 g ai/ha, scale 0 to 100 (0 no effect, 100 complete control)
Procedure, shortened: as §1

morningglory = test: Test B pre-/postemergence herbicide test; type: in vivo, Ipomoea coccinea
Procedure, shortened: (§3)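 Seeds were planted and treated preemergence with compounds formulated in a non-phytotoxic solvent mixture containing surfactant, while plants at the 1- to 4-leaf stage (2 to 18 cm) received postemergence sprays. Flooded paddy plants were grown to the 2-leaf stage. After 13 to 15 days in a greenhouse, injury was visually rated 0–100 against untreated controls.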

velvetleaf = test: Test B pre-/postemergence herbicide test; type: in vivo, Abutilon theophrasti
Procedure, shortened: as §2

corn = test: Test B pre-/postemergence herbicide test; type: in vivo, Zea mays
Procedure, shortened: as §2

blackgrass = test: Test B postemergence herbicide test; type: in vivo, Alopecurus myosuroides
Procedure, shortened: as §1

giant foxtail = test: Test B pre-/postemergence herbicide test; type: in vivo, Setaria faberi
Procedure, shortened: as §2

cocklebur = test: Test B pre-/postemergence herbicide test; type: in vivo, Xanthium strumarium
Procedure, shortened: as §3

barnyardgrass = test: Test B flooded paddy test; type: in vivo, Echinochloa crus-galli; details: 1000 g ai/ha, scale 0 to 100 (0 no effect, 100 complete control)
Procedure, shortened: as §1

rice = test: Test B flooded paddy test; type: in vivo, Oryza sativa; details: 1000 g ai/ha, scale 0 to 100 (0 no effect, 100 complete control)
Procedure, shortened: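 Each value is a visual 0–100 response rating taken against controls 13 to 15 days after treatment in the greenhouse. Plants received formulated chemical postemergence at the 1- to 4-leaf stage or, in flooded paddy, at the 2-leaf stage.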

pigweed = test: Test B pre-/postemergence herbicide test; type: in vivo, Amaranthus retroflexus
Procedure, shortened: as §2

Surinam grass = test: Test B pre-/postemergence herbicide test; type: in vivo, Urochloa decumbens
Procedure, shortened: as §2

wild oat = test: Test B postemergence herbicide test; type: in vivo, Avena fatua
Procedure, shortened: as §1

ducksalad = test: Test B flooded paddy test; type: in vivo, Heteranthera limosa; details: 1000 g ai/ha, scale 0 to 100 (0 no effect, 100 complete control)
Procedure, shortened: as §1

[2] = postemergence, 125 g ai/ha, visual rating, scale 0 (no effect) to 100 (complete control)
[3] = postemergence, 500 g ai/ha, visual rating, scale 0 (no effect) to 100 (complete control)
[4] = 125 g ai/ha, 0 = no effect, 100 = complete control, preemergence
[5] = 500 g ai/ha, visual rating 0-100, 0 no effect, 100 complete control, preemergence
[6] = Postemergence, 500 g ai/ha, scale 0 (no effect) to 100 (complete control)
[7] = postemergence, 125 g ai/ha, scale 0 to 100
[8] = 125 g ai/ha, 0 is no effect, 100 is complete control, preemergence

CCc1nc(C(C)(C)C)sc1C(=O)Nc1cccc(C(=O)NCC2CC2)c1 [Compound 212]
Wheat plant response rating (wheat; [2]): 10
Wheat plant response rating (wheat; [3]): 20
Lambsquarters plant response rating (0 to 100 scale) (lambsquarters; [4]): 100
Plant response rating, Lambsquarters (lambsquarters; [5]): 100
Lambsquarters plant response rating (lambsquarters; [2]): 90
Lambsquarters plant response rating (lambsquarters; [3]): 100
Sedge, Umbrella plant response rating ([1]; visual rating, 13 to 15 days): 70
Morningglory plant response rating (0 to 100 scale) (morningglory; [4]): 0
Plant response rating, Morningglory (morningglory; [5]): 60
Morningglory plant response rating (morningglory; [2]): 10
Morningglory plant response rating (morningglory; [3]): 50
Velvetleaf plant response rating (0 to 100 scale) (velvetleaf; [4]): 10
Plant response rating, Velvetleaf (velvetleaf; [5]): 80
Velvetleaf plant response rating (velvetleaf; [2]): 50
Velvetleaf plant response rating (velvetleaf; [3]): 70
Corn plant response rating (0 to 100 scale) (corn; [4]): 10
Plant response rating, Corn (corn; [5]): 30
Corn plant response rating (corn; [2]): 20
Corn plant response rating (corn; [3]): 40
Blackgrass plant response rating (blackgrass; [2]): 10
Blackgrass plant response rating (blackgrass; [3]): 20
Foxtail, Giant plant response rating (0 to 100 scale) (giant foxtail; [4]): 70
Plant response rating, Foxtail, Giant (giant foxtail; [5]): 100
Foxtail, Giant plant response rating (giant foxtail; [2]): 10
Foxtail, Giant plant response rating (giant foxtail; [3]): 40
Cocklebur plant response rating (0 to 100 scale) (cocklebur; [4]): 0
Plant response rating, Cocklebur (cocklebur; [5]): 50
Cocklebur plant response rating (cocklebur; [2]): 80
Cocklebur plant response rating (cocklebur; [3]): 90
Barnyardgrass plant response rating (barnyardgrass; visual rating, 13 to 15 days): 50
Rice plant response rating (rice; visual rating, 13 to 15 days): 70
Pigweed plant response rating (0 to 100 scale) (pigweed; [4]): 100
Plant response rating, Pigweed (pigweed; [5]): 100
Pigweed plant response rating (pigweed; [2]): 60
Pigweed plant response rating (pigweed; [3]): 90
Surinam Grass plant response rating (0 to 100 scale) (Surinam grass; [4]): 50
Plant response rating, Surinam Grass (Surinam grass; [5]): 70
Surinam Grass plant response rating (Surinam grass; [2]): 30
Surinam Grass plant response rating (Surinam grass; [3]): 60
Oat, Wild plant response rating (wild oat; [2]): 20
Oat, Wild plant response rating (wild oat; [3]): 20
Ducksalad plant response rating (ducksalad; visual rating, 13 to 15 days): 80

CCc1nn(C(C)C)nc1C(=O)Nc1cccc(C(=S)N(C)C)c1 [Compound 409]
Wheat plant response rating (wheat; 500 g ai/ha, scale 0 to 100, 0 no effect, 100 complete control, preemergence): 100
Wheat plant response rating (wheat; [6]): 10
Wheat plant response rating (wheat; [7]): 0
Plant response rating (0 to 100 scale), Lambsquarters (lambsquarters; [8]): 100
Lambsquarters plant response rating (lambsquarters; [6]): 70
Lambsquarters plant response rating (lambsquarters; [7]): 30
Sedge, Umbrella plant response rating [1]: 90
Plant response rating (0 to 100 scale), Morningglory (morningglory; [8]): 60
Morningglory plant response rating (morningglory; [6]): 70
Morningglory plant response rating (morningglory; [7]): 0
Plant response rating (0 to 100 scale), Velvetleaf (velvetleaf; [8]): 30
Velvetleaf plant response rating (velvetleaf; [6]): 0
Velvetleaf plant response rating (velvetleaf; [7]): 0
Plant response rating (0 to 100 scale), Corn (corn; [8]): 50
Corn plant response rating (corn; [6]): 10
Corn plant response rating (corn; [7]): 0
Blackgrass plant response rating (blackgrass; [6]): 40
Blackgrass plant response rating (blackgrass; [7]): 10
Plant response rating (0 to 100 scale), Foxtail, Giant (giant foxtail; [8]): 70
Foxtail, Giant plant response rating (giant foxtail; [6]): 20
Foxtail, Giant plant response rating (giant foxtail; [7]): 0
Plant response rating (0 to 100 scale), Cocklebur (cocklebur; [8]): 10
Cocklebur plant response rating (cocklebur; [6]): 10
Cocklebur plant response rating (cocklebur; [7]): 0
Barnyardgrass plant response rating (barnyardgrass): 90
Rice plant response rating (rice): 70
Plant response rating (0 to 100 scale), Pigweed (pigweed; [8]): 90
Pigweed plant response rating (pigweed; [6]): 70
Pigweed plant response rating (pigweed; [7]): 30
Plant response rating (0 to 100 scale), Surinam Grass (Surinam grass; [8]): 90
Surinam Grass plant response rating (Surinam grass; [6]): 30
Surinam Grass plant response rating (Surinam grass; [7]): 10
Oat, Wild plant response rating (wild oat; [6]): 10
Oat, Wild plant response rating (wild oat; [7]): 0
Ducksalad plant response rating (ducksalad): 70
